pEC50: −log10 of the molar value.
Biological target: T1, ABCG2 (ATP-binding cassette super-family G member 2, BCRP) (Homo sapiens, UniProt Q9UNQ0)
T1 construct: ABCG2 in insect cell membrane vesicles
T1 sequence (Q9UNQ0 1-655): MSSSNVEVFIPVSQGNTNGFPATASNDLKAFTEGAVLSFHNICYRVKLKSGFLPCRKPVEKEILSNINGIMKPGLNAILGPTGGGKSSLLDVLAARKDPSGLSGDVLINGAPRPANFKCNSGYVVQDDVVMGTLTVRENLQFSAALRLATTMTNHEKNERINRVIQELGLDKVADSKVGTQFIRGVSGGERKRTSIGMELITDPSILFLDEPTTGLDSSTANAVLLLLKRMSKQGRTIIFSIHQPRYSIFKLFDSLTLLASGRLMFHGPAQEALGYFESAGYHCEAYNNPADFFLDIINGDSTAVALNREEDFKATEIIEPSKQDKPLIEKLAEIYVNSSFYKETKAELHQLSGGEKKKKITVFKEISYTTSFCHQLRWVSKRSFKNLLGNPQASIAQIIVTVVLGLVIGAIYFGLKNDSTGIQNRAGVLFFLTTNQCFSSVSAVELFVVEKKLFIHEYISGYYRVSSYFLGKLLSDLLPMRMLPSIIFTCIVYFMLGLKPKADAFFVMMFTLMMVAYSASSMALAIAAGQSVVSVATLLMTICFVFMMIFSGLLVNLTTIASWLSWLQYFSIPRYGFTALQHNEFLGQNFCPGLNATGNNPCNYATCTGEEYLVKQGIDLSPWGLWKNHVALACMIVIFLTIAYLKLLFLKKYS
Test: biochemical

pEC50: 5.17
Compound: O=C1NC(=O)[C@@H](c2cn3c4c(cccc24)CCC3)[C@@H]1c1c[nH]c2ccccc12 [Tivantinib]
